Assay results: patent US20250099486A1, “WOUND HEALING MEDICAMENT” (The University of Sheffield, priority 2017, published 2025)

What was measured:
[1] = test system: CAM; experiment: Ex-ovo CAM assay, direct application of substances; assay type: in vivo, chicken (Gallus domesticus); details: over 4 days
Description: (§1) All CAM experiments were carried out according to the Home Office, UK guidelines. Fertilised chicken eggs (Gallus domesticus) were purchased from Henry Stewart & Co. (MedEggs, Norwich, UK). The eggs were carefully wiped with 20% industrial methylated spirit (IMS) solution using hand paper towels in order to remove dirt and feathers from the shell. The eggs were then incubated at 37.5° C. until embryonic development day (EDD) 3, lying horizontally in an humidified egg incubator (RCOM King SURO, P&T Poultry, Powys, Wales).
(§2) On EDD3, the upper surface of the eggs were marked with a felt pen. The eggs were held horizontally (with the marked surface on top) and cracked on the edge of a 1000 ml glass beaker and kept close to the bottom surface of petri dishes. The embryos were then transferred gently into sterile petri dishes and kept in a humidified incubator (Binder, Tuttlingen, Germany) at 38° C.
Plastic rings (˜6.5 mm in diameter) were used as a reservoir for substances and a marker for the implantation area, were placed on the CAM, and the substances were applied as 20 μl volume onto the CAM twice a day to give a […] between EDD7 and EDD11. Images of the rings were acquired using a digital microscope at EDD11, and then 20% lens culinaris agglutinin (LCA) (Vector Laboratories, Peterborough, UK) was injected into the circulation for labelling the intravascular endothelial cells using 30G needles under a dissection microscope (Wild Heerbrugg, Heerbrugg, Switzerland). CAMs were then removed and fixed in 3.7% formaldehyde solution. Embryos were sacrificed at the end of EDD11. Fixed CAM samples were then imaged under a confocal microscope (Zeiss LSM 510 Meta, Jena, Germany) for investigating the effect of substances on the microvascular structure of the CAMs.
Blood vessels were quantified by segmentation of the images [C. Roma-Rodrigues, A. Heuer-Jungemann, A. R. Fernandes, A. G. Kanaras, P. V. Baptista, Peptide-coated gold nanoparticles for modulation of angiogenesis in vivo, IntJ Nanomedicine. 11 (2016) 2633-2639. doi: 10.2147/IJN.S108661] so as to include all discernible vessels and then counting the branch points and calculating average vessel lengths [D. Ribatti, B. Nico, A. Vacca, M. Presta, The gelatin sponge-chorioallantoic membrane assay, Nat Protoc. 1 (2006) 85-91. doi: 10.1038/nprot.2006.13, P. Brooks, A. P. Montgomery, D. Cheresh, Use of the 10-Day-Old Chick Embryo Model for Studying Angiogenesis, Integrin Protoc. 129 (1999) 257-269. doi: 10.1385/1-59259-249-X: 257] via multiple image processing steps. Firstly, the internal area of the ring was cropped, and the red, green and blue channels were split using Adobe Photoshop CS6 (ADOBE Systems Inc., San Jose, California, USA). The green channel was then imported to ImageJ (Wayne Rasband, National Institutes of Health, USA) for further analysis including unsharp mask filtering, enhancing the local contrast, noise removal and segmentation. Finally, the number of branch points was quantified using quantification software (AngioTool, National Cancer Institute, USA) (FIG. 14A) and average blood vessel lengths were calculated by using binary image histograms with known pixel/mm ratios in ImageJ (Wayne Rasband, National Institutes of Health, USA).
The percentage vascular area (VA %) of the microvasculature of CAMs were quantified using confocal images of rhodamine labelled lectin injected CAM samples as shown in FIG. 14B. To do this, images were imported to ImageJ (Wayne Rasband, National Institutes of Health, USA) and converted to binary images after filtering and smoothing processes prior to quantification. VA % was calculated using the histogram list of black and white areas in the image.
All chemicals were purchased from Sigma Aldrich unless indicated otherwise. […]

[2] = E2 and 2dDR release from PHBV scaffolds in PBS; assay type: physicochemical; details: within 7 days
Description: 10% (w/w) PHBV solution loaded was prepared prior to electrospinning. 1 g of PHBV granules (Goodfellow, London, UK) were dissolved in 1 g of methanol (Fisher Scientific, Massachusetts, USA) and 8 g of DCM (Fisher Scientific, Massachusetts, USA) in a fume hood. Four 10% PHBV solutions were prepared prior to addition of substances. Finally, 25 mg E2, 50 mg of E2, 250 mg of 2dDR and 500 mg of 2dDR were then added to each solution per 1 g of PHBV. The mixtures were magnetically stirred overnight.
Scaffolds were cut into pieces so to fit into an 6-well plate, weighed and submerged in 4 ml of PBS. The E2 and 2dDR concentrations released from each group (25 mg E2, 50 mg E2, 250 mg 2dDR, 500 mg 2dDR) were measured […] using a UV-VIS spectrophotometer (Thermo Fischer Evolution 220, Massachusetts, USA) at 238 nm for 2dDR and 220 nm for E2. Absorbance values were converted into concentrations using a standard curve of known concentrations of E2 and 2dDR.

[3] = test system: CAM; experiment: Ex-ovo CAM assay, implantation of E2 and 2dDR releasing PHBV scaffolds; assay type: in vivo, chicken (Gallus domesticus); details: for mean vessel count: control 23.1 (±1.24)
Description: as §1, §2
Scaffolds were cut into 5.5 mm diameter circles using a laser cutting machine (Epilog Laser Cutter, Clevedon, UK) and sterilised under UV light for 1 hour prior to implantation. Two circular scaffolds were placed on CAM at EDD8. Images of the scaffolds were acquired using a digital microscope at EDD 12 and EDD14. Microinjection of rhodamine labelled lectin into the circulation was performed, CAMs were removed and fixed in 3.7% formaldehyde solution. Embryos were then sacrificed at the end of EDD14. Angiogenesis was quantified by counting all blood vessels that converged towards the graft.
Haematoxylin and Eosin (H&E) staining was performed on cell impregnated scaffolds by modifiying a standard protocol. Briefly, fixed samples were embedded in optimal cutting temperature OCT and frozen in liquid nitrogen for 3 minutes. Sections were cut 8-10 μm thick using a cryostat (Leica Biosystems Nussloch, Germany) at −20° C. Sections were then stained with haematoxylin for 90 seconds and eosin for 5 minutes respectively. Finally H&E images were acquired under a light microscope (Motic DM-B1, Xiamen, China). The total number of blood vessels adjacent to the scaffolds were quantified by counting blood vessels in H&E sections [A. Minajeva, M. Kase, M. Saretok, A. Adamson-Raieste, S. Kase, K. Niinepuu, M Vardja, T. Asser, J. Jaal, Impact of Blood Vessel Quantity and Vascular Expression of CD133 and ICAM-1 on Survival of Glioblastoma Patients, Neurosci J. 2017 (2017) 8 pages] Briefly, all discernible blood vessels adjacent to the scaffolds were counted by two independent researchers using two independent microscopes at 10× magnification from the total of six different slides for each group and six different area of interest from each slide.

[4] = test system: endothelial cell; details: in vitro; reported by Merchan et al. 2010; cited from earlier work
[5] = test system: chorionic allantoic membrane (CAM); experiment: CAM assay of deoxy sugar-loaded biomaterials (in ovo, implanted day 8, scored day 14); assay type: in vivo, chicken (Gallus domesticus); details: loaded (1 mg/ml) in cross-linked chitosan/collagen hydrogels
Description: Fertilized chicken (Gallus domesticus) eggs were purchased from Big Bird (Raiwind road, Lahore, Pakistan) and incubated at 37° C. from day 2 of fertilization until day 8 in a humidified egg incubator (HHD, 435, China). At day 8, a square window (1 cm^2) was cut into the shell and removed, and a 2 cm^2 piece of the electrospun scaffold or hydrogels (16% PCL electrospun scaffold/CS/PVA hydrogel/CS/collagen hydrogels) placed onto the CAM. Each egg was implanted with one scaffold or hydrogel only.
The shell window was closed with parafilm (Bemis Flexible Packaging, USA) and sealed with adhesive tape. After implantation, eggs were placed again at 37° C. in a 40% humidified incubator until day 14. At day 14, biomaterials were retrieved and the eggs were sacrificed. Angiogenesis was quantified by taking light microscope pictures just before scaffold retrieval and then blindly scored by four assessors using histological images of the retrieved materials. The number of implanted and survived eggs is given in the caption of respective CAM assay figures.
D and L isomers of three-deoxysugars (ribose, fucose and rhamnose) were loaded onto the porous freeze gelated triethyl orthoformate (4%) covalently cross-linked chitosan/collagen (1:1) hydrogels. The hydrogels were soaked in an aqueous solution of sugars (1 mg/ml) and were further lyophilized (freeze dried) to produce porous membranes. As for the electrospun scaffold, the hydrogels were grafted into the fertilized eggs at day 8 and after day 14 the eggs were sacrificed and the effect of sugars on angiogenesis was investigated.

C[C@]12CC[C@@H]3c4ccc(O)cc4CC[C@H]3[C@@H]1CC[C@@H]2O [E2, Oestradiol, reference compound]
increase of number of branch points compared to controls ([1]; E2 100 ng/day): 1.3 fold
increase of number of branch points compared to controls ([1]; E2 200 ng/day): 1.5 fold
percentage vascular area (VA %) of microvasculature ([1]; E2 200 ng/day, control 55.3%±3%): 79.5%±5%
increase of number of branch points compared to controls ([1]; E2 600 ng/day): 1.4 fold
increase of average vessel length compared to controls ([1]; all E2 concentrations (100, 200, 600 ng/day)): 1.2 fold
total release from scaffolds, of the initial amount present in the polymer solution ([2]; 25 mg E2 per 1 g PHBV scaffold): 1.3%
total release from scaffolds, of the initial amount present in the polymer solution ([2]; 50 mg E2 per 1 g PHBV scaffold): 1.6%
mean vessel count ([3]; 25 mg E2 loaded PHBV scaffolds): 49.5 (±0.92)
mean vessel count ([3]; 50 mg E2 loaded PHBV scaffolds): 37.9 (±1.05)
mean number of blood vessels adjacent to the scaffolds (H&E sections) ([3]; all concentrations, compared with controls and CAM only groups): significantly increased
number of discernible blood vessels growing towards the scaffolds in comparison with plain PHBV scaffolds ([3]; all groups of releasing PHBV scaffolds): at least doubled

O=CC[C@@H](O)[C@H](O)[C@H](O)CO [2-DG, 2-deoxy-D-Glucose]
antiangiogenic activity [4]: inhibited endothelial capillary formation and endothelial cell migration

C[C@@H](O)[C@H](O)[C@H](O)[C@@H](O)C=O [Deoxy-D-fucose, D-fucose, reference compound]
angiogenic response [5]: no significant response

C[C@@H](O)[C@@H](O)[C@H](O)[C@H](O)C=O [Deoxy-D-rhamnose, D-rhamnose, reference compound]
angiogenic response [5]: only a marginal response
